In article PMC7555970, “Design, Synthesis and Biological Evaluation of Biphenylglyoxamide-Based Small Molecular Antimicrobial Peptide Mimics as Antibacterial Agents” (International Journal of Molecular Sciences, 2020):

Tests used:
P. aeruginosa (PA01) = conditions: no antibacterial activity at the highest concentration tested (250 μM) ref 43; cited from earlier work
E. coli (K12) = conditions: no antibacterial activity at the highest concentration tested (250 μM) ref 43; cited from earlier work
S. aureus (SA38) [1] = conditions: previously synthesised N-sulfonylphenylglyoxamide iodide salts ref 43; cited from earlier work
Gram-negative bacteria = system: Gram-negative bacteria; parameters: method as in doi:10.1002/slct.201700336, PMID 28203673; conditions: previously reported ref 43, 44; cited from earlier work
S. aureus (SA38) [2] = experiment: Minimum inhibitory concentration (MIC) assay against S. aureus; assay type: cell-based, Staphylococcus aureus; conditions: Staphylococcus aureus
Protocol: The antimicrobial activity of the compounds was evaluated by MIC assay using the procedure described by Clinical and Laboratory Standards Institute (CLSI). A single colony of bacteria was cultured overnight in trypticase soy broth (TSB; Oxoid, Basingstoke, UK) at 37 °C with shaking. The resulting bacterial culture was collected by centrifugation and resuspended in TSB twice. The optical density (OD) of the resulting culture was adjusted to OD660 = 0.1 in TSB (which is equivalent to 10^8 colony forming unit (CFU)/mL bacteria). It was further diluted to 10^6 CFU/mL in TSB. 100 µL of the bacterial solution was then added to wells of a 96-well plate (Costar; Sigma-Aldrich, St Louis, MO, USA) containing 100 µL serially diluted peptide mimic, with final concentration ranging from 1 to 250 µM. Wells with bacteria but no compound were used as negative control while wells with only media were set as blank. The plates were then wrapped with parafilm to prevent evaporation and incubated with shaking at 120 rpm at 37 °C for 18–24 h, and the data were recorded by measuring the OD value at 660 nm using a FLUOstar Omega (BMG Labtech, Mornington, Victoria, Australia) microplate reader. […] Each experiment was performed in triplicate and was repeated in three independent experiments.

[3] = system: established S. aureus biofilms; parameters: method as in PMID 27405275; conditions: 4× its MIC (32 μM) ref 52; cited from earlier work

CCCCCCCCS(=O)(=O)Nc1ccc(Br)cc1C(=O)C(=O)NCCC[N+](C)(C)C [Compound 4b]
MIC against P. aeruginosa (P. aeruginosa (PA01)): > 250 µM
MIC against E. coli (E. coli (K12)): > 250 µM
MIC against S. aureus (S. aureus (SA38) [1]): 63 µM
antibacterial activity against Gram-negative bacteria (Gram-negative bacteria): no antibacterial activity

CN(C)CCCNC(=O)C(=O)c1cc(-c2ccccc2)ccc1NC(=O)c1ccc2ccccc2c1 [Compound 25, N-(3-(2-((3-(Dimethylamino)propyl)amino)-2-oxoacetyl)-[1,1’-biphenyl]-4-yl)-2-naphthamide]
MIC (S. aureus (SA38) [2]): > 250 µM
melting point: 151.6 to 151.8 °C

LL-37: a natural antimicrobial peptide that is being tested in phase II clinical trials (LLGDFFRKSKEKIGKEFKRIVQRIKDFLRNLVPRTES; Antibacterial peptide LL-37; UniProt P49913 134-170, looked up)
disruption of mature S. aureus biofilms [3]: approximately 40%
